Experimental data from patent US20080009546A1 (Chevron U.S.A. Inc., priority 2005, published 2008).

Assay: Dissolving compounds to make 10 mM stock solution
Assay type: physicochemical
Details: deionized water or assay friendly solvents, hot water
Method: Following assay establishment, the test compounds were tested for binding affinities. The concentrations selected for the experiments were chosen according to what was found for memantine in our assay. The first task was to dissolve the compounds and make up the 10 mM stock solution for further experiments. Those compounds that were made into salt format were easy to dissolve in deionized water, but the other compounds were difficult to bring into solution. Several “assay friendly” solvents have been tried, such as molecusol, acetic acid and propylene glycol followed by putting the vial into hot water.

| SMILES | dissolution for 10 mM stock solution |
| --- | --- |
| O=C(O)C12CC3CC4C5CC(CC41)CC2C5C3 [MDT-17] | did not go into solution, or came out with time |
| O=C(O)C12CC3CC4C1CC1CC2C(C3)C4(C(=O)O)C1 [MDT-19] | did not go into solution, or came out with time |
